{"source": "ChEMBL document CHEMBL1201862", "about": "“PubChem BioAssay data set” (2004)", "target": "Envelope glycoprotein gp160 (Human immunodeficiency virus 1, UniProt Q6QLK5)", "sequence (Q6QLK5 whole entry, the tested form may be a part)": "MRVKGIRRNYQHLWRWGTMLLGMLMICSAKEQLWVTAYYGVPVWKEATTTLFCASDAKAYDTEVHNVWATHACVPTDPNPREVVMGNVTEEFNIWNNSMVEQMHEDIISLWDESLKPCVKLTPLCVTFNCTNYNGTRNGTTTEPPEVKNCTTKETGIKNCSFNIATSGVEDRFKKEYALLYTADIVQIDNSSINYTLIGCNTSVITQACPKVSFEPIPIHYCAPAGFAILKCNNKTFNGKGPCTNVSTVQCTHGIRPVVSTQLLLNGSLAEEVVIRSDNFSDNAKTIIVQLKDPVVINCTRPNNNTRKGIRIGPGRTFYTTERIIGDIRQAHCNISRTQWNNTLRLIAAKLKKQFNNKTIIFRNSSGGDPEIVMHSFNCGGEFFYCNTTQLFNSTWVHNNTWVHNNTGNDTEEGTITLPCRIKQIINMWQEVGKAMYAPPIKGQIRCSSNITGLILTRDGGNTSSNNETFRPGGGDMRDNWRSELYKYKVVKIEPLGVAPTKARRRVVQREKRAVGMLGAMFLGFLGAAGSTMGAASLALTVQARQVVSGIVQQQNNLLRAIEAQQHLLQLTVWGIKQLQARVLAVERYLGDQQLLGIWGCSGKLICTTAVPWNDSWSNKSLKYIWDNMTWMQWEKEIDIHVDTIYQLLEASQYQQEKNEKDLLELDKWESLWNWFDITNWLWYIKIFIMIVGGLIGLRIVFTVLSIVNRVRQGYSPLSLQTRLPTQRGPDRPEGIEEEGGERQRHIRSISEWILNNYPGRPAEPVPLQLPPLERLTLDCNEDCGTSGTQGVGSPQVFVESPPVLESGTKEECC", "assay": "cell-free HIV fusion peptide-binding blockers – biochemical, uHTS, fluorescence dequenching, […] (AID 1986)", "note": "The source made the active and inactive calls. Rule as the data show it: actives have a measured IC50 and inactives only a lower limit."}
{"compound": "O=C(O)c1cc(N2N=C(C(F)(F)F)/C(=C/C=C/c3ccco3)C2=O)ccc1Cl", "values": [{"measurement": "IC50", "result": "8.25 µM (active)"}]}
{"compound": "CCN1C(=O)/C(=C\\c2ccc(-c3ccc([N+](=O)[O-])cc3OC)o2)S/C1=N\\c1cccc(C(=O)O)c1", "values": [{"measurement": "IC50", "result": "29.4 µM (active)"}]}
